Test results published in US10442807B2, “Aryl substituted bicyclic compounds as herbicides” (FMC Corporation, priority 2015, dated 2019).

What was measured:
Assay type in all cases: in vivo
[1] = test system: pigweed (Amaranthus retroflexus); assay: Test A preemergence, directed soil spray, visual injury rating; conditions: approx. 10 d, 0 = no effect, 100 = complete control
Outline: (§1)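 Rated visually against untreated controls after approx. 10 d in greenhouse, scale 0 = no effect, 100 = complete control. Seeded loam/sand blend given directed soil spray preemergence, or plants sprayed at one- to two-leaf stage, 2-10 cm tall; surfactant-containing non-phytotoxic solvent formulation.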

kochia (Kochia scoparia) [2] = assay: as above; conditions: approx. 10 d, 0 = no effect, 100 = complete control
Outline: as §1

[3] = test system: foxtail, giant (giant foxtail, Setaria faberii); assay: as above; conditions: approx. 10 d, 0 = no effect, 100 = complete control
Outline: as §1

[4] = test system: barnyardgrass (Echinochloa crus-galli); assay: as above; conditions: approx. 10 d, 0 = no effect, 100 = complete control
Outline: as §1

[5] = test system: ragweed (common ragweed, Ambrosia elation); assay: as above; conditions: approx. 10 d, 0 = no effect, 100 = complete control
Outline: as §1

[6] = test system: ryegrass, Italian (Italian ryegrass, Lolium multiflorum); assay: as above; conditions: approx. 10 d, 0 = no effect, 100 = complete control
Outline: as §1

rice (Oryza sativa) = assay: Test B flooded paddy test, visual plant response rating; conditions: 250 g ai/ha; applied to paddy water at 2-leaf stage; rated after 13 to 15 days; scale 0 to 100, 0 is no effect, 100 is complete control
Outline: (§2)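 Ratings compare treated with control plants by eye, scored 0 (no effect) to 100 (complete control). Application is into paddy water 3 cm deep over soil, maintained at that level for 13–15 days under greenhouse conditions.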

[7] = test system: sedge, umbrella (small-flower umbrella sedge, Cyperus difformis); assay: as above; conditions: 250 g ai/ha; applied to paddy water at 2-leaf stage; rated after 13 to 15 days; scale 0 to 100, 0 is no effect, 100 is complete control
Outline: as §2

[8] = test system: ducksalad (Heteranthera limosa); assay: as above; conditions: 250 g ai/ha; applied to paddy water at 2-leaf stage; rated after 13 to 15 days; scale 0 to 100, 0 is no effect, 100 is complete control
Outline: as §2

[9] = test system: barnyardgrass (Echinochloa crus-galli); assay: as above; conditions: 250 g ai/ha; applied to paddy water at 2-leaf stage; rated after 13 to 15 days; scale 0 to 100, 0 is no effect, 100 is complete control
Outline: as §2

[10] = test system: pigweed (Amaranthus retroflexus); assay: Test A postemergence application, visual injury rating; conditions: approx. 10 d, 0 = no effect, 100 = complete control
Outline: as §1

[11] = test system: wheat (Triticum aestivum); assay: as above; conditions: approx. 10 d, 0 = no effect, 100 = complete control
Outline: as §1

[12] = test system: galium (catchweed bedstraw, Galium aparine); assay: as above; conditions: approx. 10 d, 0 = no effect, 100 = complete control
Outline: as §1

corn (Zea mays) = assay: as above; conditions: approx. 10 d, 0 = no effect, 100 = complete control
Outline: as §1

kochia (Kochia scoparia) [13] = assay: as above; conditions: approx. 10 d, 0 = no effect, 100 = complete control
Outline: as §1

[14] = test system: foxtail, giant (giant foxtail, Setaria faberii); assay: as above; conditions: approx. 10 d, 0 = no effect, 100 = complete control
Outline: as §1

[15] = test system: blackgrass (Alopecurus myosuroides); assay: as above; conditions: approx. 10 d, 0 = no effect, 100 = complete control
Outline: as §1

[16] = test system: barnyardgrass (Echinochloa crus-galli); assay: as above; conditions: approx. 10 d, 0 = no effect, 100 = complete control
Outline: as §1

[17] = test system: ragweed (common ragweed, Ambrosia elation); assay: as above; conditions: approx. 10 d, 0 = no effect, 100 = complete control
Outline: as §1

[18] = test system: ryegrass, Italian (Italian ryegrass, Lolium multiflorum); assay: as above; conditions: approx. 10 d, 0 = no effect, 100 = complete control
Outline: as §1

Structure (SMILES) | Pigweed plant response rating (0 to 100 scale) ([1]; 125 g ai/ha) | Pigweed plant response rating (0 to 100 scale) ([1]; 500 g ai/ha) | Kochia plant response rating (0 to 100 scale) (kochia (Kochia scoparia) [2]; 125 g ai/ha) | Kochia plant response rating (0 to 100 scale) (kochia (Kochia scoparia) [2]; 500 g ai/ha) | Foxtail, Giant plant response rating (0 to 100 scale) ([3]; 125 g ai/ha) | Foxtail, Giant plant response rating (0 to 100 scale) ([3]; 500 g ai/ha) | Barnyardgrass plant response rating (0 to 100 scale) ([4]; 125 g ai/ha) | Barnyardgrass plant response rating (0 to 100 scale) ([4]; 500 g ai/ha) | Ragweed plant response rating (0 to 100 scale) ([5]; 125 g ai/ha) | Ragweed plant response rating (0 to 100 scale) ([5]; 500 g ai/ha) | Ryegrass, Italian plant response rating (0 to 100 scale) ([6]; 125 g ai/ha) | Ryegrass, Italian plant response rating (0 to 100 scale) ([6]; 500 g ai/ha) | Plant response rating, Flood, Rice (rice (Oryza sativa)) | Plant response rating, Flood, Sedge, Umbrella [7] | Plant response rating, Flood, Ducksalad [8] | Plant response rating, Flood, Barnyardgrass [9] | Pigweed plant response rating (0 to 100 scale) ([10]; 125 g ai/ha) | Pigweed plant response rating (0 to 100 scale) ([10]; 500 g ai/ha) | Wheat plant response rating (0 to 100 scale) ([11]; 125 g ai/ha) | Wheat plant response rating (0 to 100 scale) ([11]; 500 g ai/ha) | also measured
Cc1nnc2n1CC(c1ccc(Cl)cc1)C2C(=O)Nc1ccccc1F (stereo not drawn) [Compound 21] | 0 | 0 | 0 | 40 | 0 | 70 | 0 | 40 | 0 | 0 | 40 | 40 | 0 | 0 | 40 | 0 | 0 | 0 | 0 | 0 | Galium plant response rating (0 to 100 scale) ([12]; 125 g ai/ha): 0; Galium plant response rating (0 to 100 scale) ([12]; 500 g ai/ha): 50; Corn plant response rating (0 to 100 scale) (corn (Zea mays); 125 g ai/ha): 0; Corn plant response rating (0 to 100 scale) (corn (Zea mays); 500 g ai/ha): 0; Kochia plant response rating (0 to 100 scale) (kochia (Kochia scoparia) [13]; 125 g ai/ha): 0; Kochia plant response rating (0 to 100 scale) (kochia (Kochia scoparia) [13]; 500 g ai/ha): 0; Foxtail, Giant plant response rating (0 to 100 scale) ([14]; 125 g ai/ha): 0; Foxtail, Giant plant response rating (0 to 100 scale) ([14]; 500 g ai/ha): 70; Blackgrass plant response rating (0 to 100 scale) ([15]; 125 g ai/ha): 0; Blackgrass plant response rating (0 to 100 scale) ([15]; 500 g ai/ha): 20; Barnyardgrass plant response rating (0 to 100 scale) ([16]; 125 g ai/ha): 0; Barnyardgrass plant response rating (0 to 100 scale) ([16]; 500 g ai/ha): 40; Ragweed plant response rating (0 to 100 scale) ([17]; 125 g ai/ha): 0; Ragweed plant response rating (0 to 100 scale) ([17]; 500 g ai/ha): 0; Ryegrass, Italian plant response rating (0 to 100 scale) ([18]; 125 g ai/ha): 0; Ryegrass, Italian plant response rating (0 to 100 scale) ([18]; 500 g ai/ha): 20
O=C(Nc1cccc(F)c1F)C1c2nnc(C(F)(F)F)n2CC1c1ccc(C(F)(F)F)cc1 (stereo not drawn) [Compound 22, N-(2,3-difluorophenyl)-6,7-dihydro-3-(trifluoromethyl)-6-[4-(trifluoromethyl)phenyl]-5H-pyrrolo[2,1-c]-1,2,4-triazole-7-carboxamide] | 0 | 0 | 0 | 0 | 0 | 30 | 0 | 20 | 0 | 0 | 0 | 0 | 0 | 0 | 30 | 0 | 0 | 0 | 0 | 0 | Galium plant response rating (0 to 100 scale) ([12]; 125 g ai/ha): 0; Galium plant response rating (0 to 100 scale) ([12]; 500 g ai/ha): 0; Corn plant response rating (0 to 100 scale) (corn (Zea mays); 125 g ai/ha): 0; Corn plant response rating (0 to 100 scale) (corn (Zea mays); 500 g ai/ha): 0; Kochia plant response rating (0 to 100 scale) (kochia (Kochia scoparia) [13]; 125 g ai/ha): 0; Kochia plant response rating (0 to 100 scale) (kochia (Kochia scoparia) [13]; 500 g ai/ha): 0; Foxtail, Giant plant response rating (0 to 100 scale) ([14]; 125 g ai/ha): 0; Foxtail, Giant plant response rating (0 to 100 scale) ([14]; 500 g ai/ha): 0; Blackgrass plant response rating (0 to 100 scale) ([15]; 125 g ai/ha): 0; Blackgrass plant response rating (0 to 100 scale) ([15]; 500 g ai/ha): 0; Barnyardgrass plant response rating (0 to 100 scale) ([16]; 125 g ai/ha): 0; Barnyardgrass plant response rating (0 to 100 scale) ([16]; 500 g ai/ha): 0; Ragweed plant response rating (0 to 100 scale) ([17]; 125 g ai/ha): 0; Ragweed plant response rating (0 to 100 scale) ([17]; 500 g ai/ha): 0; Ryegrass, Italian plant response rating (0 to 100 scale) ([18]; 125 g ai/ha): 0; Ryegrass, Italian plant response rating (0 to 100 scale) ([18]; 500 g ai/ha): 0
CCc1ccc(C2Cn3c(C)nnc3C2C(=O)Nc2cccc(F)c2F)cc1 (stereo not drawn) [Compound 23] | 0 | 20 | 20 | 40 | 70 | 90 | 60 | 90 | 0 | 0 | 0 | 0 | 0 | 0 | 80 | 0 | 0 | 0 | 0 | 0 | Galium plant response rating (0 to 100 scale) ([12]; 125 g ai/ha): 0; Galium plant response rating (0 to 100 scale) ([12]; 500 g ai/ha): 30; Corn plant response rating (0 to 100 scale) (corn (Zea mays); 125 g ai/ha): 0; Corn plant response rating (0 to 100 scale) (corn (Zea mays); 500 g ai/ha): 20; Kochia plant response rating (0 to 100 scale) (kochia (Kochia scoparia) [13]; 125 g ai/ha): 30; Kochia plant response rating (0 to 100 scale) (kochia (Kochia scoparia) [13]; 500 g ai/ha): 30; Foxtail, Giant plant response rating (0 to 100 scale) ([14]; 125 g ai/ha): 30; Foxtail, Giant plant response rating (0 to 100 scale) ([14]; 500 g ai/ha): 70; Blackgrass plant response rating (0 to 100 scale) ([15]; 125 g ai/ha): 0; Blackgrass plant response rating (0 to 100 scale) ([15]; 500 g ai/ha): 20; Barnyardgrass plant response rating (0 to 100 scale) ([16]; 125 g ai/ha): 50; Barnyardgrass plant response rating (0 to 100 scale) ([16]; 500 g ai/ha): 90; Ragweed plant response rating (0 to 100 scale) ([17]; 125 g ai/ha): 0; Ragweed plant response rating (0 to 100 scale) ([17]; 500 g ai/ha): 0; Ryegrass, Italian plant response rating (0 to 100 scale) ([18]; 125 g ai/ha): 0; Ryegrass, Italian plant response rating (0 to 100 scale) ([18]; 500 g ai/ha): 0
Cc1nnc2n1CC(c1ccc(C(F)(F)F)cc1)C2C(=O)Nc1ccccc1F (stereo not drawn) [Compound 24, N-(2-fluorophenyl)-6,7-dihydro-3-methyl-6-[4-(trifluoromethyl)phenyl]-5H-pyrrolo[2,1-c]-1,2,4-triazole-7-carboxamide] | 0 | 20 | 0 | 60 | 30 | 90 | 0 | 40 | 0 | 30 | 0 | 30 | 0 | 0 | 0 | 0 | 0 | 20 | 0 | 30 | Galium plant response rating (0 to 100 scale) ([12]; 125 g ai/ha): 0; Galium plant response rating (0 to 100 scale) ([12]; 500 g ai/ha): 60; Corn plant response rating (0 to 100 scale) (corn (Zea mays); 125 g ai/ha): 0; Corn plant response rating (0 to 100 scale) (corn (Zea mays); 500 g ai/ha): 40; Kochia plant response rating (0 to 100 scale) (kochia (Kochia scoparia) [13]; 125 g ai/ha): 0; Kochia plant response rating (0 to 100 scale) (kochia (Kochia scoparia) [13]; 500 g ai/ha): 0; Foxtail, Giant plant response rating (0 to 100 scale) ([14]; 125 g ai/ha): 40; Foxtail, Giant plant response rating (0 to 100 scale) ([14]; 500 g ai/ha): 80; Blackgrass plant response rating (0 to 100 scale) ([15]; 125 g ai/ha): 0; Blackgrass plant response rating (0 to 100 scale) ([15]; 500 g ai/ha): 50; Barnyardgrass plant response rating (0 to 100 scale) ([16]; 125 g ai/ha): 30; Barnyardgrass plant response rating (0 to 100 scale) ([16]; 500 g ai/ha): 80; Ragweed plant response rating (0 to 100 scale) ([17]; 125 g ai/ha): 0; Ragweed plant response rating (0 to 100 scale) ([17]; 500 g ai/ha): 0; Ryegrass, Italian plant response rating (0 to 100 scale) ([18]; 125 g ai/ha): 0; Ryegrass, Italian plant response rating (0 to 100 scale) ([18]; 500 g ai/ha): 20
